Measurements: ChEMBL document CHEMBL3784938, “Novel heterocyclic ring-fused oleanolic acid derivatives as osteoclast inhibitors for osteoporosis” (Medchemcomm, 2016)

How the values were obtained:
[1] = tested on: RAW264.7; assay: Antiosteoclast activity in mouse RAW264.7 cells assessed as inhibition of RANKL-induced osteoclast differentiation at 20 uM after 5 days by TRAP assay; format: functional; settings: RAW264.7, 120 h
[2] = tested on: RAW264.7; assay: Antiosteoclast activity in mouse RAW264.7 cells assessed as inhibition of RANKL-induced osteoclast differentiation at 2 uM after 5 days by TRAP assay; format: functional; settings: RAW264.7, 120 h
[3] = tested on: RAW264.7; assay: cells; settings: Mus musculus, RAW264.7, 120 h
Description: Antiosteoclast activity in mouse RAW264.7 cells assessed as inhibition of RANKL-induced osteoclast differentiation after 5 days by TRAP assay

[4] = Cytotoxicity against mouse RAW264.7 cells assessed as inhibition of cell viability at 20 uM after 24 hrs by MTT assay; format: cell-based; settings: read-out: INH
[5] = Cytotoxicity against mouse RAW264.7 cells assessed as inhibition of cell viability at 10 uM after 24 hrs by MTT assay; format: cell-based; settings: read-out: INH
[6] = Cytotoxicity against mouse RAW264.7 cells assessed as inhibition of cell viability at 5 uM after 24 hrs by MTT assay; format: cell-based; settings: read-out: INH
[7] = Cytotoxicity against mouse RAW264.7 cells assessed as inhibition of cell viability at 2 uM after 24 hrs by MTT assay; format: cell-based; settings: read-out: INH

| SMILES | inhibition at 20 µM [1] [%] | inhibition at 2 µM [2] [%] | IC50 [3] [nM] | cytotoxicity at 24 h, 20 µM [4] [%] | cytotoxicity at 24 h, 10 µM [5] [%] | cytotoxicity at 24 h, 5 µM [6] [%] | cytotoxicity at 24 h, 2 µM [7] [%] |
| --- | --- | --- | --- | --- | --- | --- | --- |
| CC1(C)CC[C@]2(C(=O)NCCCN3CCOCC3)CC[C@]3(C)C(=CC[C@@H]4[C@@]5(C)Cc6c[nH]nc6C(C)(C)[C@@H]5CC[C@]43C)[C@@H]2C1 | 100 | 49.8 | – | – | – | – | – |
| CC1(C)CC[C@]2(C(=O)NC3CCN(Cc4ccccc4)CC3)CC[C@]3(C)C(=CC[C@@H]4[C@@]5(C)Cc6cn(S(=O)(=O)c7ccc(C(F)(F)F)cc7)nc6C(C)(C)[C@@H]5CC[C@]43C)[C@@H]2C1 | 82.1 | 83.6 | – | – | – | – | – |
| CC1(C)CC[C@]2(C(=O)NCCN3CCCCC3)CC[C@]3(C)C(=CC[C@@H]4[C@@]5(C)Cc6cn(S(=O)(=O)c7ccc(Cl)cc7)nc6C(C)(C)[C@@H]5CC[C@]43C)[C@@H]2C1 | 100 | 0.9 | – | – | – | – | – |
| CC1(C)CC[C@]2(C(=O)NC3CCN(Cc4ccccc4)CC3)CC[C@]3(C)C(=CC[C@@H]4[C@@]5(C)Cc6cn(S(=O)(=O)c7ccc(Br)cc7)nc6C(C)(C)[C@@H]5CC[C@]43C)[C@@H]2C1 | 19.6 | 20.3 | – | – | – | – | – |
| CC1(C)CC[C@]2(C(=O)O)CC[C@]3(C)C(=CC[C@@H]4[C@@]5(C)Cc6cnoc6C(C)(C)[C@@H]5CC[C@]43C)[C@@H]2C1 | 100 | 27.4 | – | – | – | – | – |
| CC1(C)CC[C@]2(C(=O)NCCCN3CCOCC3)CC[C@]3(C)C(=CC[C@@H]4[C@@]5(C)Cc6cnoc6C(C)(C)[C@@H]5CC[C@]43C)[C@@H]2C1 | 45.9 | 23.2 | – | – | – | – | – |
| Cc1noc(C)c1S(=O)(=O)n1cc2c(n1)C(C)(C)[C@@H]1CC[C@]3(C)[C@H](CC=C4[C@@H]5CC(C)(C)CC[C@]5(C(=O)NC5CCN(Cc6ccccc6)CC5)CC[C@]43C)[C@@]1(C)C2 | 69.5 | 64 | – | – | – | – | – |
| COc1ccc(S(=O)(=O)n2cc3c(n2)C(C)(C)[C@@H]2CC[C@]4(C)[C@H](CC=C5[C@@H]6CC(C)(C)CC[C@]6(C(=O)NCCCN6CCOCC6)CC[C@]54C)[C@@]2(C)C3)cc1OC | 50.9 | 34.4 | – | – | – | – | – |
| CC1(C)CC[C@]2(C(=O)NCCN3CCCCC3)CC[C@]3(C)C(=CC[C@@H]4[C@@]5(C)Cc6cn(S(=O)(=O)c7ccc(C(F)(F)F)cc7)nc6C(C)(C)[C@@H]5CC[C@]43C)[C@@H]2C1 | 100 | 100 | 68 | – | – | – | – |
| CC1(C)CC[C@]2(C(=O)NC3CCN(Cc4ccccc4)CC3)CC[C@]3(C)C(=CC[C@@H]4[C@@]5(C)Cc6cn(S(=O)(=O)c7ccc(OC(F)(F)F)cc7)nc6C(C)(C)[C@@H]5CC[C@]43C)[C@@H]2C1 | 71.9 | 2.2 | – | – | – | – | – |
| Cn1cnc(S(=O)(=O)n2cc3c(n2)C(C)(C)[C@@H]2CC[C@]4(C)[C@H](CC=C5[C@@H]6CC(C)(C)CC[C@]6(C(=O)NCCN6CCCCC6)CC[C@]54C)[C@@]2(C)C3)c1 | 100 | 89.5 | – | – | – | – | – |
| CC1(C)CC[C@]2(C(=O)NCCCN3CCOCC3)CC[C@]3(C)C(=CC[C@@H]4[C@@]5(C)Cc6cn(S(=O)(=O)c7ccc(OC(F)(F)F)cc7)nc6C(C)(C)[C@@H]5CC[C@]43C)[C@@H]2C1 | 86.3 | 31.8 | – | – | – | – | – |
| COc1ccc(S(=O)(=O)n2cc3c(n2)C(C)(C)[C@@H]2CC[C@]4(C)[C@H](CC=C5[C@@H]6CC(C)(C)CC[C@]6(C(=O)NC6CCN(Cc7ccccc7)CC6)CC[C@]54C)[C@@]2(C)C3)cc1OC | 100 | 93.2 | 35 | 0 | 0 | 0 | 0 |
| CC1(C)CC[C@]2(C(=O)NCc3ccccc3)CC[C@]3(C)C(=CC[C@@H]4[C@@]5(C)Cc6cn(S(=O)(=O)c7ccc(Cl)cc7)nc6C(C)(C)[C@@H]5CC[C@]43C)[C@@H]2C1 | 0 | 0 | – | – | – | – | – |
| CC1(C)CC[C@]2(C(=O)NC3CCN(Cc4ccccc4)CC3)CC[C@]3(C)C(=CC[C@@H]4[C@@]5(C)Cc6cn(S(=O)(=O)c7ccc(C(C)(C)C)cc7)nc6C(C)(C)[C@@H]5CC[C@]43C)[C@@H]2C1 | 65.6 | 39.2 | – | – | – | – | – |
| CC1(C)CC[C@]2(C(=O)NCCCN3CCOCC3)CC[C@]3(C)C(=CC[C@@H]4[C@@]5(C)Cc6cn(S(=O)(=O)c7ccc(Cl)cc7)nc6C(C)(C)[C@@H]5CC[C@]43C)[C@@H]2C1 | 56.1 | 20.6 | – | – | – | – | – |
| CC1(C)CC[C@]2(C(=O)O)CC[C@]3(C)C(=CC[C@@H]4[C@@]5(C)Cc6cn[nH]c6C(C)(C)[C@@H]5CC[C@]43C)[C@@H]2C1 | 99 | 32.1 | – | – | – | – | – |
| Cc1noc(C)c1S(=O)(=O)n1cc2c(n1)C(C)(C)[C@@H]1CC[C@]3(C)[C@H](CC=C4[C@@H]5CC(C)(C)CC[C@]5(C(=O)NCCCN5CCOCC5)CC[C@]43C)[C@@]1(C)C2 | 100 | 75.2 | – | – | – | – | – |

| SMILES | inhibition at 20 µM [1] [%] | inhibition at 2 µM [2] [%] | IC50 [3] [nM] | cytotoxicity at 24 h, 20 µM [4] [%] | cytotoxicity at 24 h, 10 µM [5] [%] | cytotoxicity at 24 h, 5 µM [6] [%] | cytotoxicity at 24 h, 2 µM [7] [%] |
| --- | --- | --- | --- | --- | --- | --- | --- |
| Cn1cc2c(n1)C(C)(C)[C@@H]1CC[C@]3(C)[C@H](CC=C4[C@@H]5CC(C)(C)CC[C@]5(C(=O)NCc5ccccc5)CC[C@]43C)[C@@]1(C)C2 | 99.7 | 76 | – | – | – | – | – |
| CC1(C)CC[C@]2(C(=O)NCCCN3CCOCC3)CC[C@]3(C)C(=CC[C@@H]4[C@@]5(C)Cc6cn(S(=O)(=O)c7ccc(F)cc7)nc6C(C)(C)[C@@H]5CC[C@]43C)[C@@H]2C1 | 97.7 | 56.1 | – | – | – | – | – |
| CC1(C)CC[C@]2(C(=O)NCCN3CCCCC3)CC[C@]3(C)C(=CC[C@@H]4[C@@]5(C)Cc6cn(S(=O)(=O)c7ccc(F)cc7)nc6C(C)(C)[C@@H]5CC[C@]43C)[C@@H]2C1 | 100 | 100 | 43 | 70.8 | 74 | 0 | 0 |
| CC1(C)CC[C@]2(C(=O)NC3CCN(Cc4ccccc4)CC3)CC[C@]3(C)C(=CC[C@@H]4[C@@]5(C)Cc6cnoc6C(C)(C)[C@@H]5CC[C@]43C)[C@@H]2C1 | 99.6 | 17.6 | – | – | – | – | – |
| CC1(C)CC[C@]2(C(=O)NCCN3CCCCC3)CC[C@]3(C)C(=CC[C@@H]4[C@@]5(C)Cc6c[nH]nc6C(C)(C)[C@@H]5CC[C@]43C)[C@@H]2C1 | 100 | 95.1 | 99 | 0 | 0 | 0 | 0 |
| CC1(C)CC[C@]2(C(=O)NCCN3CCCCC3)CC[C@]3(C)C(=CC[C@@H]4[C@@]5(C)Cc6cnoc6C(C)(C)[C@@H]5CC[C@]43C)[C@@H]2C1 | 100 | 78.5 | – | – | – | – | – |
| CC1(C)CC[C@]2(C(=O)NC3CCN(Cc4ccccc4)CC3)CC[C@]3(C)C(=CC[C@@H]4[C@@]5(C)Cc6cn(S(=O)(=O)c7ccc(Cl)cc7)nc6C(C)(C)[C@@H]5CC[C@]43C)[C@@H]2C1 | 41.3 | 18.2 | – | – | – | – | – |
| CC1(C)CC[C@]2(C(=O)NCCCN3CCOCC3)CC[C@]3(C)C(=CC[C@@H]4[C@@]5(C)Cc6cn(S(=O)(=O)c7ccc(C(C)(C)C)cc7)nc6C(C)(C)[C@@H]5CC[C@]43C)[C@@H]2C1 | 97.7 | 56.1 | – | – | – | – | – |
| CC1(C)CC[C@]2(C(=O)NCc3ccccc3)CC[C@]3(C)C(=CC[C@@H]4[C@@]5(C)Cc6cnoc6C(C)(C)[C@@H]5CC[C@]43C)[C@@H]2C1 | 69.3 | 27.3 | – | – | – | – | – |
| Cn1cnc(S(=O)(=O)n2cc3c(n2)C(C)(C)[C@H]2CC[C@@]4(C)[C@@H](CC=C5[C@H]6CC(C)(C)CC[C@@]6(C(=O)NC6CCN(Cc7ccccc7)CC6)CC[C@@]54C)[C@]2(C)C3)c1 | 100 | 80.7 | – | – | – | – | – |
| CC1(C)CC[C@]2(C(=O)NC3CCN(Cc4ccccc4)CC3)CC[C@]3(C)C(=CC[C@@H]4[C@@]5(C)Cc6c[nH]nc6C(C)(C)[C@@H]5CC[C@]43C)[C@@H]2C1 | 100 | 88.6 | – | – | – | – | – |
| CC1(C)CC[C@]2(C(=O)NCc3ccccc3)CC[C@]3(C)C(=CC[C@@H]4[C@@]5(C)Cc6c[nH]nc6C(C)(C)[C@@H]5CC[C@]43C)[C@@H]2C1 | 100 | 67.7 | – | – | – | – | – |
| Cc1cccc(S(=O)(=O)n2cc3c(n2)C(C)(C)[C@@H]2CC[C@]4(C)[C@H](CC=C5[C@@H]6CC(C)(C)CC[C@]6(C(=O)NCCN6CCCCC6)CC[C@]54C)[C@@]2(C)C3)c1 | 100 | 33.6 | – | – | – | – | – |
| CC1(C)CC[C@]2(C(=O)NC3CCN(Cc4ccccc4)CC3)CC[C@]3(C)C(=CC[C@@H]4[C@@]5(C)Cc6cn(S(=O)(=O)c7ccc(F)cc7)nc6C(C)(C)[C@@H]5CC[C@]43C)[C@@H]2C1 | 82.9 | 73 | – | – | – | – | – |
| CC1(C)CC[C@]2(C(=O)NCCN3CCCCC3)CC[C@]3(C)C(=CC[C@@H]4[C@@]5(C)Cc6cn(S(=O)(=O)c7ccc(C(C)(C)C)cc7)nc6C(C)(C)[C@@H]5CC[C@]43C)[C@@H]2C1 | 89.8 | 20.8 | – | – | – | – | – |
| Cc1noc(C)c1S(=O)(=O)n1cc2c(n1)C(C)(C)[C@@H]1CC[C@]3(C)[C@H](CC=C4[C@@H]5CC(C)(C)CC[C@]5(C(=O)NCCN5CCCCC5)CC[C@]43C)[C@@]1(C)C2 | 100 | 22.3 | – | 72 | 70.7 | 0 | 0 |
| CC1(C)CC[C@]2(C(=O)O)CC[C@]3(C)C(=CC[C@@H]4[C@@]5(C)CC[C@H](O)C(C)(C)[C@@H]5CC[C@]43C)[C@@H]2C1 [OLEANOLIC_ACID] | 82.1 | 11.4 | – | – | – | – | – |
